Reference: PubChem BioAssay AID2060507 (Molecular Pharmacology Branch, DTP, NCI, 2025)

Tested on: 519858-162-T-J1-PDC complex spheroid viability
Assay: Anticancer human tumor 519858-162-T-J1-PDC patient-derived colon adenocarcinoma cell line growth inhibition [GQUAD]
Conditions: for IC50: curve of first compound; for viability, T/C: stronger effect = lower value; active means viability on the fitted dose curve at most 10% of control; inactive means the rest
Summary of the method: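 Multi-cell-type spheroids of tumor cells with HUVEC and mesenchymal stem cells, treated with drug combinations. Concentrations descend in half-log steps from near clinical Cmax, or from 10 microM where Cmax is unknown; viability read-out.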

[1] = second compound 0.0316 µM, first compound 0.0316 µM
[2] = second compound 0.0316 µM, first compound 0.1 µM
[3] = second compound 0.0316 µM, first compound 0.316 µM
[4] = second compound 0.0316 µM, first compound 1 µM
[5] = second compound 0.0316 µM, first compound 3.16 µM
[6] = second compound 0.0316 µM, first compound 10 µM
[7] = second compound 0.1 µM, first compound 0.0316 µM
[8] = second compound 0.1 µM, first compound 0.1 µM
[9] = second compound 0.1 µM, first compound 0.316 µM
[10] = second compound 0.1 µM, first compound 1 µM
[11] = second compound 0.1 µM, first compound 3.16 µM
[12] = second compound 0.1 µM, first compound 10 µM
[13] = second compound 0.316 µM, first compound 0.0316 µM
[14] = second compound 0.316 µM, first compound 0.1 µM
[15] = second compound 0.316 µM, first compound 0.316 µM
[16] = second compound 0.316 µM, first compound 1 µM
[17] = second compound 0.316 µM, first compound 3.16 µM
[18] = second compound 0.316 µM, first compound 10 µM
[19] = second compound 1 µM, first compound 0.0316 µM
[20] = second compound 1 µM, first compound 0.1 µM
[21] = second compound 1 µM, first compound 0.316 µM
[22] = second compound 1 µM, first compound 1 µM
[23] = second compound 1 µM, first compound 3.16 µM
[24] = second compound 1 µM, first compound 10 µM
[25] = second compound 3.16 µM, first compound 0.0316 µM
[26] = second compound 3.16 µM, first compound 0.1 µM
[27] = second compound 3.16 µM, first compound 0.316 µM
[28] = second compound 3.16 µM, first compound 1 µM
[29] = second compound 3.16 µM, first compound 3.16 µM
[30] = second compound 3.16 µM, first compound 10 µM
[31] = second compound 10 µM, first compound 0.0316 µM
[32] = second compound 10 µM, first compound 0.1 µM
[33] = second compound 10 µM, first compound 0.316 µM
[34] = second compound 10 µM, first compound 1 µM
[35] = second compound 10 µM, first compound 3.16 µM
[36] = second compound 10 µM, first compound 10 µM
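Further: spheroids exposed to compounds for 7 days.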
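Wherever viability, T/C is given: 100% = DMSO vehicle control viability.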

CC1COCCN1c1cc(C2(O)CC3CCC(C2)O3)c2cnn(-c3ccn[nH]3)c2n1 (stereo unspecified) + CN(C)c1ccc(Nc2c3ccc(NC(=O)CCN4CCCC4)cc3nc3cc(NC(=O)CCN4CCCC4)ccc23)cc1
> 10 µM: IC50 (second compound 0.1 µM) | IC50 (second compound 0.316 µM) | IC50 (second compound 3.16 µM) | IC50 (second compound 10 µM)
8.37 µM: IC50 (second compound 0.0316 µM)
9.4 µM: IC50 (second compound 1 µM)
inactive: viability, T/C [1] 84.3% | viability, T/C [2] 89% | viability, T/C [3] 87.3% | viability, T/C [4] 90.2% | viability, T/C [5] 114% | viability, T/C [6] 42% | viability, T/C [7] 77.5% | viability, T/C [8] 76.9% | viability, T/C [9] 76.5% | viability, T/C [10] 73.5% | viability, T/C [11] 75.2% | viability, T/C [12] 71.6% | viability, T/C [13] 106% | viability, T/C [14] 65.5% | viability, T/C [15] 98.2% | viability, T/C [16] 105% | viability, T/C [17] 113% | viability, T/C [18] 57% | viability, T/C [19] 104% | viability, T/C [20] 75.6% | viability, T/C [21] 99.8% | viability, T/C [22] 79.2% | viability, T/C [23] 88.4% | viability, T/C [24] 47.8% | viability, T/C [25] 71.1% | viability, T/C [26] 66.8% | viability, T/C [27] 98.3% | viability, T/C [28] 73.2% | viability, T/C [29] 74.3% | viability, T/C [30] 65.3% | viability, T/C [31] 85% | viability, T/C [32] 81% | viability, T/C [33] 59.9% | viability, T/C [34] 60.7% | viability, T/C [35] 76.5% | viability, T/C [36] 43.1%

CC[C@@]1(O)C(=O)OCc2c1cc1n(c2=O)Cc2cc3c(CN(C)C)c(O)ccc3nc2-1 + Cc1cnc(CNC(=O)c2c(=O)c3ccc(N4CCCN(C)CC4)nc3n3c2sc2ccccc23)cn1
< 0.000999 µM: IC50 (second compound 10 µM)
> 0.316 µM: IC50 (second compound 0.0316 µM) | IC50 (second compound 0.1 µM) | IC50 (second compound 0.316 µM) | IC50 (second compound 1 µM) | IC50 (second compound 3.16 µM)
inactive: viability, T/C (second compound 0.0316 µM, first compound 0.000999 µM) 88% | viability, T/C (second compound 0.0316 µM, first compound 0.00316 µM) 91% | viability, T/C (second compound 0.0316 µM, first compound 0.00999 µM) 89.7% | viability, T/C [1] 67.7% | viability, T/C (second compound 0.0316 µM, first compound 0.0999 µM) 78% | viability, T/C [3] 83.7% | viability, T/C (second compound 0.1 µM, first compound 0.000999 µM) 93.8% | viability, T/C (second compound 0.1 µM, first compound 0.00316 µM) 89.3% | viability, T/C (second compound 0.1 µM, first compound 0.00999 µM) 84.5% | viability, T/C [7] 79.5% | viability, T/C (second compound 0.1 µM, first compound 0.0999 µM) 70.9% | viability, T/C [9] 59.4% | viability, T/C (second compound 0.316 µM, first compound 0.000999 µM) 90.1% | viability, T/C (second compound 0.316 µM, first compound 0.00316 µM) 86.8% | viability, T/C (second compound 0.316 µM, first compound 0.00999 µM) 96.5% | viability, T/C [13] 78.8% | viability, T/C (second compound 0.316 µM, first compound 0.0999 µM) 80.7% | viability, T/C [15] 74.6% | viability, T/C (second compound 1 µM, first compound 0.000999 µM) 66.1% | viability, T/C (second compound 1 µM, first compound 0.00316 µM) 58.9% | viability, T/C (second compound 1 µM, first compound 0.00999 µM) 72.8% | viability, T/C [19] 49.7% | viability, T/C (second compound 1 µM, first compound 0.0999 µM) 59% | viability, T/C [21] 62.9% | viability, T/C (second compound 3.16 µM, first compound 0.000999 µM) 67.2% | viability, T/C (second compound 3.16 µM, first compound 0.00316 µM) 43.9% | viability, T/C (second compound 3.16 µM, first compound 0.00999 µM) 75.9% | viability, T/C [25] 43% | viability, T/C (second compound 3.16 µM, first compound 0.0999 µM) 38.2% | viability, T/C [27] 64.4% | viability, T/C (second compound 10 µM, first compound 0.000999 µM) 58.5% | viability, T/C (second compound 10 µM, first compound 0.00316 µM) 34.9% | viability, T/C (second compound 10 µM, first compound 0.00999 µM) 40% | viability, T/C [31] 41.2% | viability, T/C (second compound 10 µM, first compound 0.0999 µM) 37.8% | viability, T/C [33] 37.6%

C=CC(=O)N1CCN(c2nc(=O)n(-c3c(C)ccnc3C(C)C)c3nc(-c4c(O)cccc4F)c(F)cc23)C(C)C1 (stereo unspecified) + Cc1cnc(CNC(=O)c2c(=O)c3ccc(N4CCCN(C)CC4)nc3n3c2sc2ccccc23)cn1
inactive: viability, T/C [1] 74.2% | viability, T/C [2] 91.8% | viability, T/C [3] 77.1% | viability, T/C [4] 89.3% | viability, T/C [5] 46.3% | viability, T/C [6] 103% | viability, T/C [7] 97% | viability, T/C [8] 70.4% | viability, T/C [9] 109% | viability, T/C [10] 92.3% | viability, T/C [11] 76.3% | viability, T/C [12] 82.9% | viability, T/C [13] 54.2% | viability, T/C [14] 53% | viability, T/C [15] 55.9% | viability, T/C [16] 57% | viability, T/C [17] 65.2% | viability, T/C [18] 76.6% | viability, T/C [19] 69.1% | viability, T/C [20] 56.3% | viability, T/C [21] 68.2% | viability, T/C [22] 56.9% | viability, T/C [23] 40.3% | viability, T/C [24] 45.5% | viability, T/C [25] 46.5% | viability, T/C [26] 49.6% | viability, T/C [27] 41.8% | viability, T/C [28] 55.8% | viability, T/C [29] 56% | viability, T/C [30] 42.9% | viability, T/C [31] 60% | viability, T/C [32] 46.4% | viability, T/C [33] 42.8% | viability, T/C [34] 48.2% | viability, T/C [35] 48.7% | viability, T/C [36] 42.8%
0.0729 µM: IC50 (second compound 10 µM)
> 10 µM: IC50 (second compound 0.0316 µM) | IC50 (second compound 0.1 µM) | IC50 (second compound 0.316 µM)
2.44 µM: IC50 (second compound 1 µM)
< 0.0316 µM: IC50 (second compound 3.16 µM)
